PubChem BioAssay AID1259407 (Chemical Carcinogenesis Research Information System (CCRIS), 2018)
The source made the active and inactive calls. No rule for the calls is given here.

Test system: CCRIS mutagenicity, Ames/micronucleus/aberration tests
Experiment: CCRIS mutagenicity studies

Measured: mutagenic call

CC(C)n1c(/C=C/[C@H](O)C[C@H](O)CC(=O)O)c(-c2ccc(F)cc2)c2ccccc21
inactive: End Point: AMES SALMONELLA TYPHIMURIUM, Test System: TA98, Metabolic Activation: NONE, Method: STANDARD PLATE inactive; negative | End Point: AMES SALMONELLA TYPHIMURIUM, Test System: TA98, Metabolic Activation: RAT, LIVER, S-9, AROCLOR 1254, Method: STANDARD PLATE inactive; negative | End Point: AMES SALMONELLA TYPHIMURIUM, Test System: TA100, Metabolic Activation: NONE, Method: STANDARD PLATE inactive; negative | End Point: AMES SALMONELLA TYPHIMURIUM, Test System: TA100, Metabolic Activation: RAT, LIVER, S-9, AROCLOR 1254, Method: STANDARD PLATE inactive; negative | End Point: AMES SALMONELLA TYPHIMURIUM, Test System: TA1535, Metabolic Activation: NONE, Method: STANDARD PLATE inactive; negative | End Point: AMES SALMONELLA TYPHIMURIUM, Test System: TA1535, Metabolic Activation: RAT, LIVER, S-9, AROCLOR 1254, Method: STANDARD PLATE inactive; negative | End Point: AMES SALMONELLA TYPHIMURIUM, Test System: TA1537, Metabolic Activation: NONE, Method: STANDARD PLATE inactive; negative | End Point: AMES SALMONELLA TYPHIMURIUM, Test System: TA1537, Metabolic Activation: RAT, LIVER, S-9, AROCLOR 1254, Method: STANDARD PLATE inactive; negative | End Point: AMES SALMONELLA TYPHIMURIUM, Test System: TA1538, Metabolic Activation: NONE, Method: STANDARD PLATE inactive; negative | End Point: AMES SALMONELLA TYPHIMURIUM, Test System: TA1538, Metabolic Activation: RAT, LIVER, S-9, AROCLOR 1254, Method: STANDARD PLATE inactive; negative | End Point: E. COLI, Test System: WP2 UVRA/PKM101, Metabolic Activation: NONE, Method: STANDARD PLATE inactive; negative | End Point: E. COLI, Test System: WP2 UVRA/PKM101, Metabolic Activation: RAT, LIVER, S-9, AROCLOR 1254, Method: STANDARD PLATE inactive; negative | End Point: E. COLI, Test System: WP2 UVRA, Metabolic Activation: NONE, Method: STANDARD PLATE inactive; negative | End Point: E. COLI, Test System: WP2 UVRA, Metabolic Activation: RAT, LIVER, S-9, AROCLOR 1254, Method: STANDARD PLATE inactive; negative | End Point: IN VITRO CHROMOSOMAL ABERRATIONS, Test System: CHINESE HAMSTER V79A, Metabolic Activation: NONE inactive; negative | End Point: IN VITRO CHROMOSOMAL ABERRATIONS, Test System: CHINESE HAMSTER V79A, Metabolic Activation: RAT, LIVER, S-9, AROCLOR 1254 inactive; negative | End Point: IN VIVO MICRONUCLEUS, Test System: BONE MARROW POLYCHROMATIC ERYTHROCYTES, Species: MOUSE, Strain/Sex: CD-1/MALE, FEMALE, Route: GAVAGE inactive; negative | Test System: AMES SALMONELLA TYPHIMURIUM, Strain/Indicator: TA98, Metabolic Activation: NONE, Method: STANDARD PLATE inactive; negative | Test System: AMES SALMONELLA TYPHIMURIUM, Strain/Indicator: TA98, Metabolic Activation: RAT, LIVER, S-9, AROCLOR 1254, Method: STANDARD PLATE inactive; negative | Test System: AMES SALMONELLA TYPHIMURIUM, Strain/Indicator: TA100, Metabolic Activation: NONE, Method: STANDARD PLATE inactive; negative | Test System: AMES SALMONELLA TYPHIMURIUM, Strain/Indicator: TA100, Metabolic Activation: RAT, LIVER, S-9, AROCLOR 1254, Method: STANDARD PLATE inactive; negative | Test System: AMES SALMONELLA TYPHIMURIUM, Strain/Indicator: TA1535, Metabolic Activation: NONE, Method: STANDARD PLATE inactive; negative | Test System: AMES SALMONELLA TYPHIMURIUM, Strain/Indicator: TA1535, Metabolic Activation: RAT, LIVER, S-9, AROCLOR 1254, Method: STANDARD PLATE inactive; negative | Test System: AMES SALMONELLA TYPHIMURIUM, Strain/Indicator: TA1537, Metabolic Activation: NONE, Method: STANDARD PLATE inactive; negative | Test System: AMES SALMONELLA TYPHIMURIUM, Strain/Indicator: TA1537, Metabolic Activation: RAT, LIVER, S-9, AROCLOR 1254, Method: STANDARD PLATE inactive; negative | Test System: AMES SALMONELLA TYPHIMURIUM, Strain/Indicator: TA1538, Metabolic Activation: NONE, Method: STANDARD PLATE inactive; negative | Test System: AMES SALMONELLA TYPHIMURIUM, Strain/Indicator: TA1538, Metabolic Activation: RAT, LIVER, S-9, AROCLOR 1254, Method: STANDARD PLATE inactive; negative | Test System: CHINESE HAMSTER FIBROBLASTS, Strain/Indicator: CHINESE HAMSTER V79A/HGPRT, Metabolic Activation: NONE inactive; negative | Test System: CHINESE HAMSTER FIBROBLASTS, Strain/Indicator: CHINESE HAMSTER V79A/HGPRT, Metabolic Activation: RAT, LIVER, S-9, AROCLOR 1254 inactive; negative | Test System: CHINESE HAMSTER V-79, Strain/Indicator: V-79 (HGPRT), Metabolic Activation: NONE inactive; negative | Test System: CHINESE HAMSTER V-79, Strain/Indicator: V-79 (HGPRT), Metabolic Activation: RAT, LIVER, S-9, AROCLOR 1254 inactive; negative | Test System: E. COLI, Strain/Indicator: WP2 UVRA (PKM101), Metabolic Activation: NONE, Method: STANDARD PLATE inactive; negative | Test System: E. COLI, Strain/Indicator: WP2 UVRA (PKM101), Metabolic Activation: RAT, LIVER, S-9, AROCLOR 1254, Method: STANDARD PLATE inactive; negative | Test System: E. COLI, Strain/Indicator: WP2 UVRA, Metabolic Activation: NONE, Method: STANDARD PLATE inactive; negative | Test System: E. COLI, Strain/Indicator: WP2 UVRA, Metabolic Activation: RAT, LIVER, S-9, AROCLOR 1254, Method: STANDARD PLATE inactive; negative
